{
  "source": "ChEMBL document CHEMBL2346648",
  "about": "“A series of thiazole derivatives bearing thiazolidin-4-one as non-competitive ADAMTS-5 (aggrecanase-2) inhibitors” (Bioorg Med Chem Lett, 2013)",
  "key": {"[1]": {"biological_target": "T1, A disintegrin and metalloproteinase with thrombospondin motifs 5 (Bos taurus) (UniProt Q9TT92)", "T1 sequence (whole entry)": "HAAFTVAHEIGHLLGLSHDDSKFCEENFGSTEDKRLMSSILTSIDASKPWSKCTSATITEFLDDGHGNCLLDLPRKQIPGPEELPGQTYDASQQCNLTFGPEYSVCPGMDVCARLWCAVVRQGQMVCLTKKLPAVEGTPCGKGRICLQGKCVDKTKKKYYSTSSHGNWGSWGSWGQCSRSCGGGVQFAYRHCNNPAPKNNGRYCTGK", "assay": "Ex vivo inhibition of ADAMTS-5-mediated aggrecan degradation in IL-1-stimulated bovine cartilage explant at 30 uM"}, "[2]": {"biological_target": "72 kDa type IV collagenase (Homo sapiens, UniProt P08253)", "sequence (P08253 whole entry)": "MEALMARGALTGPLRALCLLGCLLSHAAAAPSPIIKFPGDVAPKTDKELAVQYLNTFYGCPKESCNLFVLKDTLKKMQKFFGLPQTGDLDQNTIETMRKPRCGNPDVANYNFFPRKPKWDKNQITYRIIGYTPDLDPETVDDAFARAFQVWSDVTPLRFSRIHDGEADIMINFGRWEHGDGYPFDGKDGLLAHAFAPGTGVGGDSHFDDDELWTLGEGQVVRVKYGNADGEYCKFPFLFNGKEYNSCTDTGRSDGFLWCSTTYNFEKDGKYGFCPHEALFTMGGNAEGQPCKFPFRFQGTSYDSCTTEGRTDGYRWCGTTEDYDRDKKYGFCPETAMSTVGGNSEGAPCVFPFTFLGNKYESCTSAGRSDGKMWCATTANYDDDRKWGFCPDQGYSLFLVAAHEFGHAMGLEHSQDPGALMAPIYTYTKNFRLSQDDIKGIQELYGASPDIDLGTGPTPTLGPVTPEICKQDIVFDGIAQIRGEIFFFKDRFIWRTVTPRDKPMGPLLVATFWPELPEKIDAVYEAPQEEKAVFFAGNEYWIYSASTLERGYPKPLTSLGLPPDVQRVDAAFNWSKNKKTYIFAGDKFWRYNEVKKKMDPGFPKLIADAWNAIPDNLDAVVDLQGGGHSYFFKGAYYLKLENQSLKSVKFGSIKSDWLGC", "assay": "Inhibition of MMP2 (unknown origin) by FRET method"}, "[3]": {"biological_target": "T2, A disintegrin and metalloproteinase with thrombospondin motifs 4 (Homo sapiens, UniProt O75173)", "T2 sequence (O75173 whole entry)": "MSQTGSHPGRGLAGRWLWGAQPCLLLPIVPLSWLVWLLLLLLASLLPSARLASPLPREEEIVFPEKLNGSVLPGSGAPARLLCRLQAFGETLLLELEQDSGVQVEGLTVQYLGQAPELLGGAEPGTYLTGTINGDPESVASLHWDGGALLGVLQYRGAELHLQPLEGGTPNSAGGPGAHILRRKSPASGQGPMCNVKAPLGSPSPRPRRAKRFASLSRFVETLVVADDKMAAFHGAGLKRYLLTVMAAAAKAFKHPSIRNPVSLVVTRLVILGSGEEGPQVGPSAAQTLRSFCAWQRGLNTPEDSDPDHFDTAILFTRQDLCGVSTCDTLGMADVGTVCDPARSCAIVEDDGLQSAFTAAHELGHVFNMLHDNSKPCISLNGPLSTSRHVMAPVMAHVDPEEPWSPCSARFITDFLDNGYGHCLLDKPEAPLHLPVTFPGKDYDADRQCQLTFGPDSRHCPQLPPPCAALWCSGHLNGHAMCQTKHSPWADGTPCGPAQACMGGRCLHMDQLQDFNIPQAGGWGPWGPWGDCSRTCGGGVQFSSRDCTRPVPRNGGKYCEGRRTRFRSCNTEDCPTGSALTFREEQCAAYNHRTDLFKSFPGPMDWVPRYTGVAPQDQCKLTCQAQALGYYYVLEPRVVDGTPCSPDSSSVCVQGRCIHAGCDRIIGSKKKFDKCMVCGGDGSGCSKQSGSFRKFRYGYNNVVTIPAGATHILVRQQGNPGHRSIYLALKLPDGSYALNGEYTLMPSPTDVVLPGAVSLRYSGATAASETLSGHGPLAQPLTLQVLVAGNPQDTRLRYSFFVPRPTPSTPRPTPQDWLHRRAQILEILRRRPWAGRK", "assay": "Inhibition of ADAMTS-4 (unknown origin) by FRET method"}, "[4]": {"biological_target": "T3, A disintegrin and metalloproteinase with thrombospondin motifs 5 (Homo sapiens, UniProt Q9UNA0)", "T3 sequence (Q9UNA0 whole entry)": "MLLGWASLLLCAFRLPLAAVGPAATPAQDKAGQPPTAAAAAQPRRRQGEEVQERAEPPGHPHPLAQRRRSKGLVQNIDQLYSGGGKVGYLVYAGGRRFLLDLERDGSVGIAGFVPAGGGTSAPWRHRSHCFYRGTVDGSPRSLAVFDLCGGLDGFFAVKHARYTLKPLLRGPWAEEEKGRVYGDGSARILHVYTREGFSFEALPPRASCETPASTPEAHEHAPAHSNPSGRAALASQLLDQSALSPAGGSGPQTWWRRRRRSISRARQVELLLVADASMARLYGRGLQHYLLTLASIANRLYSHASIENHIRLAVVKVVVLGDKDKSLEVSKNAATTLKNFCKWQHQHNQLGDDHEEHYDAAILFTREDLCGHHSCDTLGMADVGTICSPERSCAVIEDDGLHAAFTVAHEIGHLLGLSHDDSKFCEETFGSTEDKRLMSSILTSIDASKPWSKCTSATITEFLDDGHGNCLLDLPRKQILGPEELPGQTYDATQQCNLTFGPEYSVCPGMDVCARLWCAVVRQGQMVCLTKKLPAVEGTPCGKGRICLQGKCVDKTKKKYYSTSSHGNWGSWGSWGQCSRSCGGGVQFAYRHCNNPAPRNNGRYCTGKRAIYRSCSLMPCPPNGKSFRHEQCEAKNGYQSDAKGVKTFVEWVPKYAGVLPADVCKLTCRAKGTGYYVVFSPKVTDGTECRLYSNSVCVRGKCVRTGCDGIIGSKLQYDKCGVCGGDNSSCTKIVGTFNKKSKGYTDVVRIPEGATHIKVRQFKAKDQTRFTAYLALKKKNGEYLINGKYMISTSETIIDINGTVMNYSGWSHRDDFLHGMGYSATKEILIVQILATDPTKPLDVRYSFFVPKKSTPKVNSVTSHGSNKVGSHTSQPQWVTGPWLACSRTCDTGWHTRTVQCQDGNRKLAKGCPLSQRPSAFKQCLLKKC", "assay": "Inhibition of human His-tagged ADAMTS-5 using QF-peptide as substrate by FRET method"}, "[5]": {"biological_target": "T4, A disintegrin and metalloproteinase with thrombospondin motifs 5 (Bos taurus, UniProt Q9TT92)", "T4 sequence (Q9TT92 whole entry)": "T1 sequence (whole entry)", "assay": "Ex vivo inhibition of ADAMTS-5-mediated aggrecan degradation in IL-1-stimulated bovine cartilage explant"}},
  "data": [
    {"smiles": "O=C(O)CCc1sc(/C=C2\\NC(=O)CS2)nc1-c1ccccn1", "values": [
      {"measurement": "inhibition", "setting": "[1]", "result": 66, "unit": "%"},
      {"measurement": "IC50", "setting": "[2]", "result": "> 30", "unit": "µM"},
      {"measurement": "IC50", "setting": "[3]", "result": 23, "unit": "µM"},
      {"measurement": "IC50", "setting": "[4]", "result": 0.23, "unit": "µM"},
      {"measurement": "IC50", "setting": "[5]", "result": 22, "unit": "µM"}
    ]}
  ]
}
